Test results: patent US6911207B1, “Cytotoxic T-cell epitopes of the papillomavirus L1-protein and use thereof in diagnostics and therapy” (MediGene Aktiengesellschaft, priority 1999, dated 2005)

How the values were obtained:
RMA-S cells = assay type: cell-based, mouse
[1] = test system: MVA-L1Δc-infected B6 cells; assay type: cell-based, mouse

| Substance | specific lysis of peptide-preincubated RMA-S target cells by spleen cells of L1-immunized mouse 1 (RMA-S cells) | specific lysis of MVA-F6-infected (control virus) B6 target cells by spleen cells of the immunized mouse [1] | specific lysis of MVA-L1Δc-infected B6 target cells by spleen cells of the immunized mouse [1] |
| --- | --- | --- | --- |
| ASNENMETM (Influenza Virus Type A) [AM control peptide] | did not cause any distinct lysis |  |  |
| L1 VLPs: HPV16 L1 virus-like particles (Muller M. et al. 1997) |  | not the MVA-F6-infected target cells | lysed the MVA-L1Δc-infected target cells |
